Measurements reported in US12152030B2 (NOVOSTAR PHARMACEUTICALS, LTD., priority 2019, dated 2024).
Where a name gives a salt, the structure may show the parent alone.

Assays:
[1] = test system: Phosphorylated eIF4E; assay: Intracellular peIF4E signaling assay; type: cell-based; conditions: 2 h; two hours incubation at 37° C.; read-out: peIF4E signaling cell assay IC50
Description: Phosphorylated eIF4E was determined using CisBio peIF4E assay kit (CisBio, catalog number 64EF4PEG). The cells were plated in a 96-well cell culture plate in a volume of 90 μL, and the number of cells per well was 5*10^4. The compounds (10×) were subjected to 3-fold serial dilution, added to the cell plate in a volume of 10 μL with the final DMSO concentration being 1%, and incubated at 37° C. for two hours. The cell plate was centrifuged at 300 g for 5 minutes, and the cell supernatant was carefully removed. The cell plate was immediately added with 50 μL of cell lysis buffer […] and incubated at 25° C. with shaking for at least 30 minutes. After homogenization by pipetting, 16 μL of cell lysate was transferred from the 96-well cell culture plate to a 384-well small-volume microwell plate. According to the kit instruction, an antibody mixture solution was prepared with a detection buffer, and was added in a volume of 4 μL to the 384-well small-volume microwell plate containing the cell lysate. The plate was covered with a plate sealer, incubated overnight at 25° C., and was read for fluorescence emission at two different wavelengths (665 nm and 615 nm) on the EnVision microplate reader counter. The emission ratio was imported into a GraphPadPrism software to fit the compound concentration (IC50) required for 50% inhibition of enzyme activity.
In this respect, IC50 values which are less than 0.05 μM were marked as “+++”, which are from 0.05 to 1.0 μM were marked as “++”, and which are greater than 1.0 and up to 100 μM were marked as “+”, and NA meant “not detected”.

[2] = target: MNK1 (Homo sapiens, UniProt Q9BUB5); assay: MNK biological enzyme assay (HTRF kinase assay), MNK1; type: biochemical; design: purchased ThermoFisher PV6023; conditions: 3 ng/ul MNK1, 1 μM STK1 peptide, 100 μM ATP
MNK1, sequence (Q9BUB5 whole entry): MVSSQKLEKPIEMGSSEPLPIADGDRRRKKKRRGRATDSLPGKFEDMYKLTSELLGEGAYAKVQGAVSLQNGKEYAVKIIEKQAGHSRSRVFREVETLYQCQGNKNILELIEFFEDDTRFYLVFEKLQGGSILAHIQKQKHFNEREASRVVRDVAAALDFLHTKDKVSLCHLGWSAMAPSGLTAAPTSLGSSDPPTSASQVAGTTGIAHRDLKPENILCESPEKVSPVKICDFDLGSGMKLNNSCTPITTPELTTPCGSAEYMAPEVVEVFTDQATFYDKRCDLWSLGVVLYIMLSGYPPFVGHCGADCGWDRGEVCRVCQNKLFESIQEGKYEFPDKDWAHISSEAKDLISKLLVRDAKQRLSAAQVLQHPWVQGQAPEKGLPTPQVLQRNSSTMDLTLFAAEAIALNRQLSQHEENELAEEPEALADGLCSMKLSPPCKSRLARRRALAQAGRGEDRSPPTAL
Description: (§1) A HTRF kinase assay kit (Cisbio, catalog number 62ST1PEB) was used to determine the MNK inhibitory activity of the compounds. All kinase reactions were performed in the reaction buffer (provided in the kit). The final MNK1 reaction involved 3 ng/ul recombinant MNK1 (ThermoFisher, PV6023), 1 μM MNK substrate peptide STK1 (provided in the kit), 100 μM ATP, and different concentrations of the inhibitory compounds of interest. The final MNK2 reaction involved 1 ng/μl recombinant MNK2 (ThermoFisher, PV5607), 1 μM MNK substrate peptide STK1 (provided in the kit), 100 μM ATP, and different concentrations of the inhibitory compounds of interest. The final DMSO concentration in each of the reactions was 1%.
(§2) The kinase reaction was performed in a final volume of 10 μl in a 384-well white flat-bottomed polystyrene plate. The MNK1/2 enzyme was pre-incubated with the compound and substrate peptide for 5 minutes, and then ATP was added thereto. After addition of ATP, the kinase reaction was incubated at 25° C. for 120 minutes or 60 minutes. The reaction was subsequently terminated by adding 5 μl of EU3+ substrate antibody detection reagent and 5 μl of XL665 detection reagent, and incubating for another 60 minutes. The luminescent signal was detected with an EnVision microplate reader counter (Perkin Elmer), and the signal from 10-point dilution series of the compounds was used to calculate the compound concentration (IC50) required to achieve 50% inhibition of enzyme activity.
(§3) In this respect, IC50 values which are less than 0.01 μM were marked as “+++”, which are from 0.01 to 0.1 μM were marked as “++”, and which are greater than 0.1 and up to 10.0 μM were marked as “+”, and NA meant “not detected”.

[3] = target: MNK2 (Homo sapiens, UniProt Q9HBH9); assay: MNK biological enzyme assay (HTRF kinase assay), MNK2; type: biochemical; design: purchased ThermoFisher PV5607; conditions: 1 ng/μl MNK2, 1 μM STK1 peptide, 100 μM ATP
MNK2, sequence (Q9HBH9 whole entry): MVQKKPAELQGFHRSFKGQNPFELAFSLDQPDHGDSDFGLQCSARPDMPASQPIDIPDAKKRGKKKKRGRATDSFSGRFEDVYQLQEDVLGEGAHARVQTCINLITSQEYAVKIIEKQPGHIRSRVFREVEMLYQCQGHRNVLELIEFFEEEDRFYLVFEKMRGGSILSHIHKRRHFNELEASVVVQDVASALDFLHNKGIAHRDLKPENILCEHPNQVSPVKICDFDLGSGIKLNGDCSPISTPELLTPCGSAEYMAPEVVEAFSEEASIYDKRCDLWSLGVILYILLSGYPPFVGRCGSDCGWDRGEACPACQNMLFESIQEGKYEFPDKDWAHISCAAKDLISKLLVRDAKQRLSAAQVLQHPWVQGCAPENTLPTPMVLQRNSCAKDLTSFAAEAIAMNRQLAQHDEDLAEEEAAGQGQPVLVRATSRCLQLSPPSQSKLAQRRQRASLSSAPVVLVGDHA
Description: as §1, §2, §3

Compound | IC50 [1] [nM] | IC50 [2] [nM] | IC50 [3] [nM]
Cc1c2n(c(=O)c3[nH]c4cc(N)ncc4c(=O)c13)C1(CCCCC1)NC2=O [Compound 1, 8′-amino-12′-methyl-2′H-spiro[cyclohexane-1,3′-imidazo[1′,5′:1,6]pyrido[3,4-b][1,6]naphthyridine]-1′,5′,11′(6′H)-trione] | < 50 | 10 to 100 | 10 to 100
Cc1c2c(c(=O)n3c1C(=O)NC3(C)C)Nc1cc(N)ncc1C2 [Compound 4, 8-amino-3,3,12-trimethyl-2,3,6,11-tetrahydroimidazo[1,5′:1.6]pyrido[3,4-b][1,6]naphthyridine derivative-1,5-dione hydrochloride] | 50 to 1000 | 10 to 100 | 10 to 100
Cc1c2n(c(=O)c3[nH]c4cc(N)ncc4c(=O)c13)C1(CCCC1)NC2=O [Compound 5, 8-amino-12-methyl-2H-spiro[cyclopentane-1,3-imidazo[1,5:1,6]pyridine[3,4-b][1,6]naphthyridine]-1,5,11(6H)-trione] | < 50 | < 10 | < 10
Cc1c2c(c(=O)n3c1C(=O)NC31CCCC1)Nc1cc(N)ncc1C2 [Compound 6, 8′-amino-12′-methyl-6′,11′-dihydro-2′H-spiro[cyclopentane-1,3′-imidazo[1′,5′:1,6]pyrido[3,4-b][1,6]naphthyridine]-1′,5′-dione] | < 50 | 10 to 100 | < 10
Cc1c2n(c(=O)c3[nH]c4cc(N)ncc4c(=O)c13)C(C)(c1ccccc1)NC2=O (centres unmarked) [Compound 7, 8-amino-3,12-dimethyl-3-phenyl-2,3-dihydroimidazo[1′,5′:1,6]pyrido[3,4-B][1,6]naphthyridine-1,5,11(6H)-trione] | 1000 to 100000 | 10 to 100 | 10 to 100
Cc1c2n(c(=O)c3[nH]c4cc(N)ncc4c(=O)c13)C(C)(c1cccc(F)c1)NC2=O (centres unmarked) [Compound 9, 8-amino-3-(3-fluorophenyl)-3,12-dimethyl-2,3-dihydroimidazo[1′,5′:1,6]pyrido[3,4-b][1,6]naphthopyridin-1,5,11(6H)-trione] | 50 to 1000 | 10 to 100 | 
Cc1c2c(c(=O)n3c1C(=O)NC3(C)c1cccc(F)c1)Nc1cc(N)ncc1C2 (centres unmarked) [Compound 10, hydrochloride] | 50 to 1000 | 10 to 100 | 10 to 100
Cc1cc2c(cn1)Cc1c(C)c3n(c(=O)c1N2)C1(CCCCC1)NC3=O [Compound 12, 8,12-dimethyl-6,11-dihydro-1H-spiro[cyclohexane-1,3-imidazo[1,5:1,6]pyrido[3,4-b][1,6]naphthyridine]-1,5(2H)-dione hydrochloride] | 50 to 1000 |  | 
Cc1c2c(c(=O)n3c1C(=O)NC3(C)c1cccc(Cl)c1)Nc1cc(N)ncc1C2 (centres unmarked) [Compound 14, 8-amino-3-(3-chlorophenyl)-3,12-dimethyl-2,3,6,11-tetrahydroimidazole[1′,5′:1,6]pyrido[3,4-b][1,6]naphthyridine-1,5-dione hydrochloride] | 50 to 1000 |  | 
Cc1c2n(c(=O)c3[nH]c4ccncc4c(=O)c13)C1(CCCCC1)NC2=O [Compound 15, 12′-methyl-1′H-spiro[cyclohexane-1,3′-imidazo[1′,5′:1,6]pyrido[3,4-b][1,6]naphthyridine]-1′,5′,11′(2′H,6′H)-trione] | 50 to 1000 |  | 
Cc1c2c(c(=O)n3c1C(=O)NC31CCCCC1)Nc1ccncc1C2 [Compound 16, 12-methyl-6,11-dihydro-1H-spiro[cyclohexane-1,3-imidazo[1,5:1,6]pyrido[3,4-b][1,6]naphthyridine]-1,5(2H)-dione hydrochloride] | < 50 | 10 to 100 | < 10
Cc1c2n(c(=O)c3[nH]c4cc(N)ncc4c(=O)c13)C1(CCN(C)CC1)NC2=O [Compound 17, 8-amino-1′,12-dimethyl-2H-spiro[imidazo[1′,5′:1,6]pyrido[3,4-B][1,6]naphthyridine-3,4′-piperidine]-1,5,11(6H)-trione] | 1000 to 100000 |  | 
Cc1c2c(c(=O)n3c1C(=O)NC31CCN(C)CC1)Nc1cc(N)ncc1C2 [Compound 18, 8-amino-1′,12-dimethyl-6,11-dihydro-2H-spiro[imidazo[1′,5′:1,6]pyrido[3,4-b][1,6]naphthyridine-3,4′-piperidine]-1,5-dione] | 50 to 1000 |  | 
C=CC1(CCO)NC(=O)c2c(C)c3c(=O)c4cnc(N)cc4[nH]c3c(=O)n21 (centres unmarked) [Compound 19, 8-amino-3-(2-hydroxyethyl)-12-methyl-3-ethenyl-2,3-dihydroimidazo[1′,5′:1,6]pyrido[3,4-b][1,6]naphthyridine-1,5,11(6H)-trione] | 1000 to 100000 |  | 
Cl.[2H]C1([2H])c2cnc(N)cc2Nc2c1c(C)c1n(c2=O)C2(CCCCC2)NC1=O [Compound 20, 8′-amino-12′-methyl-6′,11′-dihydro-2′H-spiro[cyclohexane-1,3′-imidazo[1′,5′:1,6]pyrido[3,4-b][1,6]naphthyridine]-1′,5′-dione-11′,11′-d2 hydrochloride] | < 50 | 10 to 100 | < 10
Cc1c2c(c(=O)n3c1C(=O)NC31CCCCC1)Nc1cc(NC(=O)C(C)C)ncc1C2 [Compound 24, N-(12methyl-1,5-dioxo-1,5,6,11-tetrahydro-2H-spiro[cyclohexane-1,3-imidazole[1,5:1,6]pyrido[3,4b][1,6]naphthyridine]-8-yl)isobutyramide] | < 50 | < 10 | < 10

Further lines, results first:

IC50 [1] [nM] | IC50 [2] [nM] | IC50 [3] [nM] | Compound
50 to 1000 | 10 to 100 | 10 to 100 | Cc1c2n(c(=O)c3[nH]c4cc(N)ncc4c(=O)c13)C(C)(C)NC2=O [Compound 3]
50 to 1000 | 10 to 100 |  | Cc1c2c(c(=O)n3c1C(=O)NC3(C)c1ccccc1)Nc1cc(N)ncc1C2 (centres unmarked) [Compound 8, 8-amino-3,12-dimethyl-3-phenyl-2,3,6,11-tetrahydroimidazo[l′,5′:1,6]pyrido[3,4-b][1,6]naphthyridine-1,5-dione, hydrochloride]
1000 to 100000 |  |  | Cc1cc2[nH]c3c(=O)n4c(c(C)c3c(=O)c2cn1)C(=O)NC41CCCCC1 [Compound 11, 8′,12′-dimethyl-1′H-spiro[cyclohexane-1,3′-imidazo[1′,5′:1,6]pyrido[3,4-b][1,6]naphthyridine]-1′,5′,11′(2′H,6′H)-trione]
50 to 1000 | 10 to 100 | 10 to 100 | Cc1c2n(c(=O)c3[nH]c4cc(N)ncc4c(=O)c13)C(C)(c1cccc(Cl)c1)NC2=O (centres unmarked) [Compound 13, 8-amino-3-(3-chlorophenyl)-3,12-dimethyl-2,3-dihydroimidazole[1′,5′:1,6]pyrido[3,4-b][1,6]naphthopyridin-1,5,11(6H)-trione]
< 50 | 10 to 100 | 10 to 100 | CNc1cc2c(cn1)Cc1c(C)c3n(c(=O)c1N2)C1(CCCCC1)NC3=O [Compound 22, 12′-methyl-8′-(methylamino)-6′,11′-dihydro-1′H-spiro[cyclohexane-1,3′-imidazo[1′,5′:1,6]pyrido[3,4-b][1,6]naphthopyridine]-1′,5′(2′H)-dione hydrochloride]
< 50 | < 10 | < 10 | Cc1c2c(c(=O)n3c1C(=O)NC31CCCCC1)Nc1cc(NC(=O)OC(C)(C)C)ncc1C2 [Compound 23, Tert-Butyl (12-methyl-1,5-dioxo-1,5,6,11-tetrahydro-2H-spiro[cyclohexane-1,3-imidazole[1,5:1,6]pyrido[3,4b][1,6]naphthalene]-8-yl)aminoformate]
< 50 | 10 to 100 | < 10 | CCC(=O)Nc1cc2c(cn1)Cc1c(C)c3n(c(=O)c1N2)C1(CCCCC1)NC3=O [Compound 25]
< 50 | 10 to 100 | < 10 | Cc1c2c(c(=O)n3c1C(=O)NC31CCCCC1)Nc1cc(NC(=O)C3CCC3)ncc1C2 [Compound 27]
